Here are results for 48 compounds from the supplement of paper PMC10290057.

Counter-ions that a name gives are not always drawn.
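Further: Luminescence-based viability readout, five doses per compound, normalized against on-plate DMSO and empty-well controls, followed by dose-response curve fitting for every drug.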

The test system of the assay is HCT116. The experiment in a line: efficacy (fitted maximal change in viability relative to DMSO control); higher = less cytotoxic (negative = loss of viability). The note with it: 48 h.
For `CC(C)NCC(O)c1ccc(O)c(O)c1` (stereo not drawn) [Isoprenaline hydrochloride], the efficacy was -16.7%.

Take `CC1=C(/C=C/C(C)=C/C=C/C(C)=C\C(=O)O)C(C)(C)CCC1` [Isotretinoin]: the efficacy is -13.5%.

With `CCn1c(=O)c2c(nc(/C=C/c3ccc(OC)c(OC)c3)n2C)n(CC)c1=O` [Istradefylline], the efficacy was -9.26%.

Consider `N#CCC1(n2cc(-c3ncnc4[nH]ccc34)cn2)CN(C2CCN(C(=O)c3ccnc(C(F)(F)F)c3F)CC2)C1` [Itacitinib], for which the efficacy was -26.4%.

With `CCC(C)N1\N=C/N(C1=O)C2=CC=C(C=C2)N3CCN(CC3)C4=CC=C(OC[C@H]5CO[C@@](C[N]6C=NC=N6)(O5)C7=CC=C(Cl)C=C7Cl)C=C4` (stereo partly drawn) [Itraconazole], the efficacy was -32.6%.

With `COc1cc2c(cc1OC)CC(=O)N(CCCN(C)C[C@H]1Cc3cc(OC)c(OC)cc31)CC2` [Ivabradine hydrochloride], the efficacy is -21.3%.

In the case of `CC(=O)OCCN1C(=O)c2c(C)nc3ccc([S+](=O)([O-])N4CCOCC4)cc3c2C1=O` [Ivachtin], the efficacy was -16.7%.

With `N#Cc1ccnc(N2C(=O)CC[C@H]2C(=O)N(c2cncc(F)c2)[C@H](C(=O)NC2CC(F)(F)C2)c2ccccc2Cl)c1` [Ivosidenib], the efficacy is -25.4%.

In the case of `C=CC(=O)Nc1ccc(F)c(-c2ncnc3[nH]cc(C(=O)OCC)c23)c1` [JAK3i], the efficacy was -66%.

`CCOc1ccc(Nc2nc(-c3c(C)nc4ccccn34)cs2)cc1` [JK-184]: the efficacy was -56.2%.

For the compound `COc1cc(SC)ccc1C(=O)N1CCC(Cc2ccccc2)CC1` [JX-401], the efficacy was -43.4%.

On to `O=C(Oc1ccc([N+](=O)[O-])cc1)N1CCC(C(O)(c2ccc3c(c2)OCO3)c2ccc3c(c2)OCO3)CC1` [JZL-184], for which the efficacy was found to be 9.17%.

In the case of `O=C(Oc1ccc([N+](=O)[O-])cc1)N1CCN(Cc2cccc(Oc3ccccc3)c2)CC1` [JZL-195], the efficacy is -38.1%.

In the case of `CCOC(=O)c1ccnc(CNCC(=O)N(CC)CCN(C)C)c1` [KDM5-C70], the efficacy was found to be 11.1%.

In the case of `NC(=O)c1cccc(-c2cccc(OC(=O)NC3CCCCC3)c2)c1` [KDS-4103], the efficacy is -18%.

On to `CCOC(=O)c1c(/C(C#N)=C\N)c2ccc(Cl)c(Cl)c2n1C` [KH-CB19], for which the efficacy is -9.36%.

Consider `COc1cc([C@@H](CC(=O)O)c2ccc(C)c(CN3C[C@@H](C)Oc4ccccc4[S+]3(=O)[O-])c2)cc2nnn(C)c12` [KI-696], for which the efficacy is -21.8%.

Consider `C[S+](=O)([O-])N(Cc1ccco1)CC(O)Cn1c2ccccc2c2ccccc21` (stereo not drawn) [KL001], for which the efficacy is -21.8%.

With `CN(C(Cc1ccc(OS(=O)(=O)c2cccc3cnccc23)cc1)C(=O)N1CCN(c2ccccc2)CC1)S(=O)(=O)c1cccc2cnccc12` (stereo not drawn) [KN-62], the efficacy was -21.2%.

`CCCNC(=O)Nc1ccc(Oc2ncnc3cc(OC)c(OC)cc23)cc1Cl` [KRN-633]: the efficacy was -12.8%.

Turning to `OC1=CC=C(C=C1)\C2=C(O)\C(=O)C3=C(O2)C=C(O)C=C3O` [Kaempferol], the efficacy turned out to be 12.7%.

Regarding `O=C(c1ccccc1)c1ccc2n1CCC2C(=O)O` (stereo not drawn) [Ketorolac], the efficacy is -7.25%.

In the case of `CN1CCC(=C2c3ccccc3CC(=O)c3sccc32)CC1` [Ketotifen], the efficacy is -39.1%.

Regarding `c1coc(CNc2ncnc3nc[nH]c23)c1` [Kinetin], the efficacy is -22.2%.

For the compound `N[C@@H](Cc1cc(I)c(Oc2cc(I)c(O)c(I)c2)c(I)c1)C(=O)O` [L-Thyroxine], the efficacy was -8.54%.

`CN[C@@H](C)C(=O)N[C@H](C(=O)N1CCC[C@H]1c1nc(C(=O)c2ccc(F)cc2)cs1)C1CCCCC1` [LCL-161]: the efficacy was -23.8%.

Regarding `C/C(O)=C(\C#N)C(=O)Nc1cc(Br)ccc1Br` [LFM-A13], the efficacy was -11.7%.

Turning to `CC(N[C@H]1C[C@@H]1c1ccccc1)c1ccc2c(c1)OCCO2` (stereo partly drawn) [LSD1-C76], the efficacy was -23.9%.

As to `NCCCC[C@H](NC(=O)[C@@H](NC(=O)[C@H](Cc1c[nH]c2ccccc12)NC(=O)[C@H](CCCCN)NC(=O)[C@H](CCCCN)NC(=O)[C@H](Cc1c[nH]c2ccccc12)NC(=O)[C@H](Cc1c[nH]c2ccccc12)NC(=O)[C@H](CCCCN)NC(=O)[C@@H](N)CCCCN)C(c1ccccc1)c1ccccc1)C(N)=O` [LTX-315], the efficacy was -89.2%.

As to `COC[C@@H](NC(C)=O)C(=O)NCc1ccccc1` [Lacosamide], the efficacy was -14.4%.

With `NC\1=N\C(=O)N(\C=C1)[C@@H]2CS[C@H](CO)O2` [Lamivudine], the efficacy was -6.75%.

In the case of `Cc1c(OCC(F)(F)F)ccnc1C[S+]([O-])c1nc2ccccc2[nH]1` (stereo not drawn) [Lansoprazole], the efficacy is -18.3%.

Regarding `C[S+](=O)([O-])c1cc(F)cc2c3c(n(Cc4ccc(Cl)cc4)c12)[C@@H](CC(=O)O)CC3` [Laropiprant], the efficacy is -18.4%.

Regarding `Nc1cccc2c1CN([C@H]1CCC(=O)NC1=O)C2=O` [Lenalidomide], the efficacy was -14%.

With `N#Cc1ccc(C(c2ccc(C#N)cc2)n2cncn2)cc1` [Letrozole], the efficacy is -10.3%.

`C[C@H]1COC2=C3N1\C=C(C(O)=O)/C(=O)C3=CC(=C2N4CCN(C)CC4)F` [Levofloxacin]: the efficacy is -12.3%.

Take `C[C@@H]\1CC(=O)N\N=C1C2=CC=C(NN=C(C#N)C#N)C=C2` [Levosimendan]: the efficacy is -64.6%.

As for `Clc1cccc(C(c2ccc3nc[nH]c3c2)n2ccnc2)c1` (stereo not drawn) [Liarozole], the efficacy is -23%.

In the case of `CC1(C)Cc2c(-c3ccccc3)c(-c3ccc(Cl)cc3)c(CC(=O)O)n2C1` [Licofelone], the efficacy was -36.6%.

On to `OCc1ccc(-c2nn(Cc3ccccc3)c3ccccc23)o1` [Lificiguat], for which the efficacy is -57.1%.

As for `CC#CCn1c(N2CCC[C@@H](N)C2)nc2c1c(=O)n(Cc1nc(C)c3ccccc3n1)c(=O)n2C` [Linagliptin], the efficacy was -31.7%.

Regarding `O=C1N(c2ccccc2)c2ccccc2C1(Cc1ccncc1)Cc1ccncc1` [Linopirdine], the efficacy is -12.1%.

In the case of `C[S+](=O)([O-])Oc1ccc2c(NC(N)=O)c(C(=O)c3ccc(Cl)cc3Cl)oc2c1` [Lirimilast], the efficacy was -17.7%.

`CCN1\C=C(C(O)=O)/C(=O)C2=C1C(=C(N3CCNC(C)C3)C(=C2)F)F` (stereo not drawn) [Lomefloxacin hydrochloride]: the efficacy is -18.8%.

Turning to `O=C(O)c1nn(Cc2ccc(Cl)cc2Cl)c2ccccc12` [Lonidamine], the efficacy is -7.79%.

As for `Cc1c(F)cc(C(=O)NC2CC2)cc1-c1ccc(C(=O)NCC(C)(C)C)cn1` [Losmapimod], the efficacy is -18.8%.

On to `CCOC(=O)O[C@@]1(CC[C@H]2[C@@H]3CCC/4=C/C(=O)/C=C\[C@]4(C)[C@H]3[C@@H](O)C[C@]12C)C(=O)OCCl` [Loteprednol etabonate], for which the efficacy is -16%.

In the case of `CC[C@H](C)C(=O)O[C@H]1C[C@@H](C)\C=C2\C=C/[C@H](C)[C@H](CC[C@@H]3C[C@@H](O)CC(=O)O3)[C@@H]12` [Lovastatin], the efficacy is -14.4%.
